Drawing on ChEMBL document CHEMBL4665874, “The splicing modulator sulfonamide indisulam reduces AR-V7 in prostate cancer cells” (2020), this text covers Activity and inhibition for one compound.

Experiment [1] has as its target T1, RNA-binding protein 39 (Homo sapiens) (UniProt Q14498).
T1 sequence (whole entry): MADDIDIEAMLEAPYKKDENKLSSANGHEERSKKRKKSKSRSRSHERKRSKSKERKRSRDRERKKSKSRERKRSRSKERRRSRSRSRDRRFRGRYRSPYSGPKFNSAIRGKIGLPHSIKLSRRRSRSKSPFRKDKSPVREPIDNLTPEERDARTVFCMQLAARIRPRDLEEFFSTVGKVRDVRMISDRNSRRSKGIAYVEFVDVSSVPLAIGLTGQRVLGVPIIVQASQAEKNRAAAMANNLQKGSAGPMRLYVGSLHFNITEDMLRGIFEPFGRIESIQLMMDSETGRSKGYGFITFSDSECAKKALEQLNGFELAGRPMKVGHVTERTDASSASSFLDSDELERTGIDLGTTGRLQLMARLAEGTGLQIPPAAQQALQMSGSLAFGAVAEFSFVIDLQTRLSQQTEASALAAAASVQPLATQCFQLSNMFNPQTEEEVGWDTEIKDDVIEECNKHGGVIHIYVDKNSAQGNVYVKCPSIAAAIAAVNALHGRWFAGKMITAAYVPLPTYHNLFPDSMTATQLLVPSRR
Kind of experiment: Induction of RBM39 degradation in human VCaP cells assessed as reduction in RBM39 protein expression at 10 uM preincubated for 24 hrs with DHT followed by wash-out and incubated with compound for 24 hrs in presence of AR antagonist MDV by western blot analysis. It is filed as cell-based.

Experiment [2] concerns Mus musculus. Kind of experiment: Reduction in RBM39 level in tumor lysates of NSG mouse xenografted with human VCaP cells at 10 mg/kg, po administered via gavage with 5 days on and 2 days off dosing schedule for 6 weeks by immunoblot analysis. As to conditions: Neoplasm. It is filed as functional, organism-based.
In experiment [3] the test system is VCaP. Kind of experiment: Antiproliferative activity against human VCaP cells assessed as reduction in cell viability at 1 to 10 uM after 14 days in presence of AR antagonist MDV by Celltiter-Glo luminescence assay. It is filed as functional, cell-based. As to conditions: dose microM 1-10, time 14.0 day.
Experiment [4] has as its system Mus musculus. Kind of experiment: Reduction in AR-V7 level in tumor lysates of NSG mouse xenografted with human VCaP cells at 10 mg/kg, po administered via gavage with 5 days on and 2 days off dosing schedule for 6 weeks by immunoblot analysis. The class given is functional, organism-based. The settings on record: Neoplasm.
In experiment [5] the target is T2, Androgen receptor (Homo sapiens) (UniProt P10275).
T2 sequence (whole entry): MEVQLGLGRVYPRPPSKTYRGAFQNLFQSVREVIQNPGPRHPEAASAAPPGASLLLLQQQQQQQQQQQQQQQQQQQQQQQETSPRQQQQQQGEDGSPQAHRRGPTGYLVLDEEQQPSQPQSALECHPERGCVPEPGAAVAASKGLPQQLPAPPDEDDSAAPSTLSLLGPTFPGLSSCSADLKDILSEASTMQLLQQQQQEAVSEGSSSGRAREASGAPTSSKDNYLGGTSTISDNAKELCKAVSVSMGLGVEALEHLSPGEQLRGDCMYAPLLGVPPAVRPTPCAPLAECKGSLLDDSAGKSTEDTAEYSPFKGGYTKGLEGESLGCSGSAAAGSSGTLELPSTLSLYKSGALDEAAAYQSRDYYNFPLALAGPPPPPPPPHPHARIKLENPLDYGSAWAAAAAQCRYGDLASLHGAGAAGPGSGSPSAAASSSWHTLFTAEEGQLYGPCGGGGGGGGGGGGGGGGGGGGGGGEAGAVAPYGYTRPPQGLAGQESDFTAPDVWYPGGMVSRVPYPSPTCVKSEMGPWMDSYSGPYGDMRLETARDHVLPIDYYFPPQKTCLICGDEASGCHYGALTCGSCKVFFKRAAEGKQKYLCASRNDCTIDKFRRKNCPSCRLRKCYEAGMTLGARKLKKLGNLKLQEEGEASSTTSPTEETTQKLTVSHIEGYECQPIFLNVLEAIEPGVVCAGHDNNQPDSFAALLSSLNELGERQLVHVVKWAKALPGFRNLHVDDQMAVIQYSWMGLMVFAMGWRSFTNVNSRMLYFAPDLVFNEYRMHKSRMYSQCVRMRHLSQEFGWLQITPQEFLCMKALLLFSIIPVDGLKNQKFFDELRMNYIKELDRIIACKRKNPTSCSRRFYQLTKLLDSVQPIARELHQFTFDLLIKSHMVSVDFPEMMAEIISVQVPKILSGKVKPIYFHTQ
Kind of experiment: Antagonist activity at AR in human VCaP cells assessed as upregulation of DHT-suppressed AR-V7 mRNA transcript level at 10 uM preincubated for 24 hrs with DHT followed by wash-out and then incubated with compound for 24 hrs by RT-qPCR analysis. The class given is cell-based.

Experiment [6] deals with Mus musculus. Kind of experiment: Reduction in total AR isoforms in tumor lysates of NSG mouse xenografted with human VCaP cells at 10 mg/kg, po administered via gavage with 5 days on and 2 days off dosing schedule for 6 weeks by immunoblot analysis. The class given is functional, organism-based. The settings on record: Neoplasm.
In experiment [7] the test system is Mus musculus. Kind of experiment: Reduction in AR-V7 level in tumor lysates of NSG mouse xenografted with human VCaP cells at 10 mg/kg, po co-administered with 25 mg/kg AR antagonist MDV via gavage with 5 days on and 2 days off dosing schedule for 6 weeks by immunoblot analysis. The class given is functional, organism-based. The settings on record: Neoplasm.
Experiment [8] addresses T1, RNA-binding protein 39 (Homo sapiens). Kind of experiment: Induction of RBM39 degradation in human VCaP cells assessed as AR splicing modulation by measuring reduction in AR-V7 splice variant mRNA transcript level incubated for 24 hrs in presence of AR antagonist MDV by RT-qPCR analysis. The class given is cell-based.
Experiment [9] deals with VCaP. Kind of experiment: Recovery of DHT-suppressed full length AR mRNA expression in human VCaP cells at 10 uM preincubated for 24 hrs with DHT followed by wash-out and then incubated with compound for 24 hrs by RT-qPCR analysis. The class given is functional, cell-based.
The subject of experiment [10] is VCaP. Kind of experiment: Antitumor activity against human VCaP cells xenografted in NSG mouse assessed as tumor volume at 10 mg/kg, po administered via gavage with 5 days on and 2 days off dosing schedule for 6 weeks and measured bi-weekly for 6 weeks. The class given is functional.
For experiment [11], the system named is Mus musculus. Kind of experiment: Reduction in RBM39 level in tumor lysates of NSG mouse xenografted with human VCaP cells at 10 mg/kg, po co-administered with 25 mg/kg AR antagonist MDV via gavage with 5 days on and 2 days off dosing schedule for 6 weeks by immunoblot analysis. It is filed as functional, organism-based. The settings on record: Neoplasm.

Experiment [12] has as its system Mus musculus. Kind of experiment: Reduction in total AR isoforms in tumor lysates of NSG mouse xenografted with human VCaP cells at 10 mg/kg, po co-administered with 25 mg/kg AR antagonist MDV via gavage with 5 days on and 2 days off dosing schedule for 6 weeks by immunoblot analysis. It is filed as functional, organism-based. The settings on record: Neoplasm.
For experiment [13], the system named is VCaP. Kind of experiment: Antitumor activity against human VCaP cells xenografted in NSG mouse assessed as tumor volume at 10 mg/kg, po co-administered with 25 mg/kg AR antagonist MDV via gavage with 5 days on and 2 days off dosing schedule for 6 weeks and measured bi-weekly for 6 weeks (reference value: 698.9 +/-286.5 […]). It is filed as functional.
In experiment [14] the target is T1, RNA-binding protein 39 (Homo sapiens). Kind of experiment: Induction of RBM39 degradation in human VCaP cells assessed as reduction in AR-V7 protein expression preincubated for 24 hrs with DHT followed by wash-out and incubated with compound for 24 hrs in presence of AR antagonist MDV by western blot analysis. The class given is cell-based.
The target is the same in experiment [15]. Kind of experiment: Induction of RBM39 degradation in human VCaP cells assessed as reduction in RBM39 protein expression preincubated for 24 hrs with DHT followed by wash-out and incubated with compound for 24 hrs in presence of AR antagonist MDV by western blot analysis. The class given is cell-based.
Experiment [16] concerns VCaP. Kind of experiment: Effect on MDV-induced recovery of DHT-suppressed full length AR mRNA expression in human VCaP cells at 10 uM preincubated for 24 hrs with DHT followed by wash-out and then incubated with compound for 24 hrs in presence of AR antagonist , MDV by RT-qPCR analysis. It is filed as functional, cell-based.
The subject of experiment [17] is VCaP. Kind of experiment: Effect on full-length AR mRNA level in human VCaP cells at 10 uM after 24 hrs by RT-qPCR analysis. The class given is functional, cell-based.

Structures are written as SMILES. Active and inactive are the calls of the source. The rule behind the calls is not given here.

In the case of `NS(=O)(=O)c1ccc(S(=O)(=O)Nc2cccc3c(Cl)c[nH]c23)cc1` [INDISULAM], the outcome (in [1]; in the experiment on VCaP [3]; in the experiment on VCaP [9]) was Active. Moreover, the inhibition entry in the experiment with Mus musculus [2], in the experiment with Mus musculus [4], in the experiment with Mus musculus [6], in the experiment with Mus musculus [7] and with Mus musculus [12] was “Active” in each case. In addition, the outcome (in experiment [5]; in the experiment on VCaP [16]; in the experiment on VCaP [17]) was inactive. Moreover, the Activity entry in experiment [8] was “Dose-dependent effect”; in the experiment with VCaP [10] it was 152 mm3; in the experiment with VCaP [13] it was 409 mm3; in [14], “Dose-dependent effect”; in experiment [15], “Dose-dependent effect”. Moreover, the inhibition result in the experiment with Mus musculus [11] is “inactive”.
